Measured values from patent US9085593B2, “Therapeutic agent for arthrosis” (SANSHO CO., LTD., priority 2011, dated 2015).
“And” between values parts separate entries of the source, which are not always exact repeats. Identical values can stand only once.

Test system: osteoarthritis in rabbit knee
Assay: Histopathological evaluation of femur and tibia condyles, rabbit knee osteoarthritis model
Type: in vivo, rabbits (Kbs:NZW)
Design: key to Fibrillation and/or fissure / Lowered proteoglycan stainability / Disorganization of chondrocytes / Loss of chondrocytes / Exposure of subchondral bone / Cluster formation / Histopathological score / Loss of superficial layer / Cartilage erosion: 0: None; 1: slight; 2: mild; 3: moderate; 4: severe; key to Disorganization of chondrocytes, Mean / Loss of chondrocytes, Mean / Exposure of subchondral bone, Mean / Cluster formation, Mean / Cartilage erosion, Mean: grade 0 to +4 per item; key to Histopathological score, Mean: sum of 8 items each graded 0 to +4
Conditions: for Cluster formation / Disorganization of chondrocytes / Exposure of subchondral bone / Fibrillation and/or fissure / Loss of chondrocytes / Lowered proteoglycan stainability / Cartilage erosion / Loss of superficial layer / Histopathological score / Cartilage erosion, Mean / Cluster formation, Mean / Disorganization of chondrocytes, Mean / Exposure of subchondral bone, Mean / Fibrillation and/or fissure, Mean / Loss of chondrocytes, Mean / Loss of superficial layer, Mean / Lowered proteoglycan stainability, Mean / Histopathological score, Mean: day 42; for Cluster formation / Disorganization of chondrocytes / Exposure of subchondral bone / Fibrillation and/or fissure / Loss of chondrocytes / Lowered proteoglycan stainability / Cartilage erosion / Loss of superficial layer / Histopathological score: individual animals 201-206; for Cluster formation / Disorganization of chondrocytes / Exposure of subchondral bone / Fibrillation and/or fissure / Loss of chondrocytes / Lowered proteoglycan stainability / Cartilage erosion / Loss of superficial layer: grade 0-4; for Histopathological score: sum of all items; for Cartilage erosion, Mean / Cluster formation, Mean / Disorganization of chondrocytes, Mean / Exposure of subchondral bone, Mean / Fibrillation and/or fissure, Mean / Loss of chondrocytes, Mean / Loss of superficial layer, Mean / Lowered proteoglycan stainability, Mean / Histopathological score, Mean: group mean n=6
Experimental: Twelve 11- to 12-week-old male rabbits (Kbs:NZW) were used. Rabbits were reared in separate cages (one rabbit per cage) at 14.4° C. to 24.9° C. under light (12 hours from 7:00 am to 7:00 pm) with continuous ventilation. Rabbits were allowed to eat 150 g of feed (CR-3, CLEA Japan, Inc.) per day and to drink tap water.
(9Z)-9-Octadecenoic acid-(2-hydroxy-2-oxide-1,2-oxaphospholan-4-yl)methyl ester sodium salt (C18:1-cPA; hereafter, referred to as “ScPA”) was used.
Hair in the vicinity of the knee joint of the right hind limb of a rabbit was shaved using electrical clippers under deep anesthesia, and the shaved area was disinfected with Isodine. The outer coat on the medial aspect of the right hind limb was incised with a surgical knife, the boundary between the medial aspect and the articular capsule of the patellofemoral ligament was further incised, and the medial patellofemoral ligament was then dissected. Thereafter, the articular capsule was spread wide open to expose the medial meniscus, which was then completely removed. Following the removal of the meniscus, tissue and epidermis in the vicinity of the articular capsule were sutured. At the time of suturing, the site of operation was washed with physiological saline (titer: 500 mg/20 ml) containing antibiotics (Viccillin, Meiji Seika Pharma Co., Ltd.).
After the model animals were prepared, they were divided into two groups each consisting of 6 individuals while averaging body […] (i.e., the vehicle administered group of Animal Numbers 101 to 106 and the test substance (ScPA) administered group of Animal Numbers 201 to 206).
The test compound and the vehicle were administered in the manner described below. • Route of administration: into the joint cavity • Site of administration: right hind limb (treated limb) • Timing of administration: on days 7, 11, 14, 18, 21, 25, 28, 32, 35, and 39 • Dosage: Test compound: 10 μg/rabbit (volume: 0.2 ml) • Vehicle: 0.2 ml/rabbit • Means of administration: with the use of a 1.0-ml syringe (Terumo Corporation) and a 27 G injection needle (Terumo Corporation) (1-5) Pain Assessment (Weight Distribution Across both Hind Limbs) Frequency of Measurement:
Four limbs were dissected from the animals under deep anesthesia, causing them to bleed to death. Thereafter, the femur condyle and the tibial condyle were removed from the knee joint of the treated limb (the right hind limb), followed by fixation in a 10% neutral buffered formalin solution.
The femur and the tibia that had been soaked and fixed in a 10% neutral buffered formalin solution were subjected to demineralization with EDTA. After the completion of demineralization, the colored sites identified below were embedded in paraffin in accordance with a conventional technique, and the resultant was sliced to a thickness of 4 μm each. The slices were subjected to hematoxylin-eosin (HE) staining and safranin O (proteoglycan) staining and histopathologically examined under an optical microscope (BX51TF; OLYMPUS). The degree of cartilage degeneration of the pathological specimens was evaluated in accordance with the criteria shown in Table 1 below (Kikuchi, T, Yoneda, H. et al., Osteoarthritis cartilage, 4; p. 99 and continuing pages, 1996). Specifically, the specimens were evaluated in terms of loss of the following 8 items according to a five-grade evaluation (0 to +4): superficial layer; cartilage erosion; fibrillation and/or fissure; lowered proteoglycan stainability (safranin O stainability); disorganization of chondrocytes; loss of chondrocytes; exposure of subchondral bone; and cluster formation. The sum total score of all items was defined as the overall score. Observation items without specific criteria defined in Table 1 were evaluated in accordance with the criteria shown in Table 2 below (Naoki Ishiguro et al., Journal of Surgery, 29: p. 112 and continuing pages, 2010).

[1] = lateral condyle of femur, listed as Test substance, sodium salt
[2] = lateral condyle of tibia, listed as Test substance, sodium salt
[3] = medial condyle of femur, listed as Test substance, sodium salt
[4] = medial condyle of the femur, of 6 samples
[5] = medial condyle of the tibia, of 6 samples
[6] = medial condyle of tibia, listed as Test substance, sodium salt

SMILES: CCCCCCCC/C=C\CCCCCCCC(=O)OCC1COP(=O)([O-])C1.[Na+] (stereo not shown) [ScPA, (9Z)-9-Octadecenoic acid-(2-hydroxy-2-oxide-1,2-oxaphospholan-4-yl)methyl ester sodium salt]
- cartilage erosion in histopathological image (FIG. 12 B) (Animal No. 201, medial aspect of the right femur, HE staining): slight
- joint cartilage change in histopathological image (FIG. 12 D) (Animal No. 201, medial aspect of the right femur, SO staining): no change
- Cluster formation (lateral condyle of femur): 0
- Disorganization of chondrocytes (lateral condyle of femur): 0
- Exposure of subchondral bone (lateral condyle of femur): 0
- Fibrillation and/or fissure (lateral condyle of femur): 0
- Loss of chondrocytes (lateral condyle of femur): 0
- Lowered proteoglycan stainability (lateral condyle of femur): 0
- Cartilage erosion [1]: 0 (4×) and 1 (2×)
- Loss of superficial layer [1]: 0 (4×) and 1 (2×)
- Histopathological score [1]: 0 (4×) and 2 (2×)
- Cartilage erosion (lateral condyle of tibia): 0
- Cluster formation (lateral condyle of tibia): 0
- Disorganization of chondrocytes (lateral condyle of tibia): 0
- Exposure of subchondral bone (lateral condyle of tibia): 0
- Fibrillation and/or fissure (lateral condyle of tibia): 0
- Loss of chondrocytes (lateral condyle of tibia): 0
- Loss of superficial layer (lateral condyle of tibia): 0
- Lowered proteoglycan stainability [2]: 0 (3×) and 1 (3×)
- Histopathological score [2]: 0 (3×) and 1 (3×)
- damages resulting from the preparation of osteoarthritis models (lateral condyles of the femur and of the tibia): substantially no damages
- Cartilage erosion, Mean (medial condyle of femur): 1.17
- Cluster formation, Mean (medial condyle of femur): 2.17
- Disorganization of chondrocytes, Mean (medial condyle of femur): 0.83
- Exposure of subchondral bone, Mean (medial condyle of femur): 0.33
- Fibrillation and/or fissure, Mean (medial condyle of femur): 0.67
- Loss of chondrocytes, Mean (medial condyle of femur): 0.83
- Loss of superficial layer, Mean (medial condyle of femur): 1.17
- Lowered proteoglycan stainability, Mean (medial condyle of femur): 1.17
- Histopathological score, Mean (medial condyle of femur, p=0.0649 vs vehicle, listed as Test substance, sodium salt): 8.33
- Histopathological score, Mean (medial condyle of femur, p=0.0649 vs vehicle, listed as test substance, sodium salt): 8.33±2.51
- Cartilage erosion [3]: 1 (4×) and 0 and 3
- Cluster formation [3]: 2 (4×) and 4 and 1
- Disorganization of chondrocytes [3]: 0 and 1 (5×)
- Exposure of subchondral bone [3]: 0 (5×) and 2
- Fibrillation and/or fissure [3]: 1 and 0 (4×) and 3
- Loss of chondrocytes [3]: 0 (3×) and 1 (2×) and 3
- Loss of superficial layer [3]: 1 (4×) and 0 and 3
- Lowered proteoglycan stainability [3]: 1 (2×) and 2 and 0 (2×) and 3
- Histopathological score [3]: 6 (2×) and 10 and 3 and 20 and 5
- Histopathological score (medial condyle of femur, listed as test substance, sodium salt): 6 (2×) and 5 and 10 and 3 and 20
- samples in which cartilage erosion was observed [4]: 5
- samples in which cluster formation was observed [4]: 6
- samples in which disorganization of chondrocytes was observed [4]: 5
- samples in which loss of cartilage superficial layer was observed [4]: 5
- samples with changes lesser than those observed in the vehicle administered group [4]: 4
- histopathological scores compared with the vehicle administered group (medial condyle of the femur, p=0.0649): lower than those of the vehicle administered group
- samples in which cartilage fibrillation and/or fissure was observed [5]: 6
- samples in which loss of cartilage superficial layer was observed [5]: 5
- samples in which lowered proteoglycan stainability was observed [5]: 5
- Cartilage erosion, Mean (medial condyle of tibia): 1.17
- Cluster formation, Mean (medial condyle of tibia): 1.50
- Disorganization of chondrocytes, Mean (medial condyle of tibia): 1.33
- Exposure of subchondral bone, Mean (medial condyle of tibia): 0.50
- Fibrillation and/or fissure, Mean (medial condyle of tibia): 1.50
- Loss of chondrocytes, Mean (medial condyle of tibia): 0.67
- Loss of superficial layer, Mean (medial condyle of tibia): 2.00
- Lowered proteoglycan stainability, Mean (medial condyle of tibia): 1.83
- Histopathological score, Mean (medial condyle of tibia, p=0.6991 vs vehicle, listed as Test substance, sodium salt): 10.50
- Histopathological score, Mean (medial condyle of tibia, p=0.6991 vs vehicle, listed as test substance, sodium salt): 10.50±3.91
- Cartilage erosion [6]: 2 and 1 (2×) and 0 (2×) and 3
- Cluster formation [6]: 4 and 1 (2×) and 0 (2×) and 3
- Disorganization of chondrocytes [6]: 2 and 1 (2×) and 0 (2×) and 4
- Exposure of subchondral bone [6]: 0 (5×) and 3
- Fibrillation and/or fissure [6]: 1 (4×) and 3 and 2
- Loss of chondrocytes [6]: 0 (4×) and 3 and 1
- Loss of superficial layer [6]: 3 (2×) and 1 (2×) and 0 and 4
- Lowered proteoglycan stainability [6]: 4 (2×) and 1 (3×) and 0
- Histopathological score [6]: 16 and 6 and 1 and 27 and 9 and 4
- Histopathological score (medial condyle of tibia, listed as test substance, sodium salt): 4 and 16 and 6 and 1 and 27 and 9
